Source: BindingDB's records for doi:10.1021/acschembio.6b00677 (Pfizer, 2016)

Tests used:
Test in all cases: TR-FRET Competition Assay
Conditions in all cases: pH 7.5
[1] = molecular target: Tyrosine-protein kinase Blk (Homo sapiens, UniProt P51451)
Method: (§1) Assay buffer was 20 mM HEPES, pH 7.5, 10 mM MgCl2, 0.01% BSA, 1 mM DTT, 0.0005% Tween 20, and 2% DMSO. […] The assays were read using an EnVi

[2] = molecular target: T1, Tyrosine-protein kinase Tec (Homo sapiens, UniProt P42680)
T1 sequence (P42680 whole entry): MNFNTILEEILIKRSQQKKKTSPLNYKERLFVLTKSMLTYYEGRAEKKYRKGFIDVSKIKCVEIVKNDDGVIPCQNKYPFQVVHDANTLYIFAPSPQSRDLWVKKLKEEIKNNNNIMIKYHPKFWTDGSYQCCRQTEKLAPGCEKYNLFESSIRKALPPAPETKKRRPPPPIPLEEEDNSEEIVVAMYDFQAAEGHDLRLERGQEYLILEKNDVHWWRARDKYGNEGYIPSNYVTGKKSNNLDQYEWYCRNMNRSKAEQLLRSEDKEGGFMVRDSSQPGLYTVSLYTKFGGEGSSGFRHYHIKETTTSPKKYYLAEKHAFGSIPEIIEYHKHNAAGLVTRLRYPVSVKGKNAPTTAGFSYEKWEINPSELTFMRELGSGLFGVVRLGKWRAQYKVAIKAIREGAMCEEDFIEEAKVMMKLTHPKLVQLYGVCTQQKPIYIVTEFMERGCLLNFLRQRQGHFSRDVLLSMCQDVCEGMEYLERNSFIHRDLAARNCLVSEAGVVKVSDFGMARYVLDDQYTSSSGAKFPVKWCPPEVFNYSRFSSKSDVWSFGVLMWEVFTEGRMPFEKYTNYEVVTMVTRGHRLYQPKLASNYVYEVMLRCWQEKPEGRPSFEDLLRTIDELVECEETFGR
Method: as §1

[3] = molecular target: T2, Tyrosine-protein kinase TXK (Homo sapiens, UniProt P42681)
T2 sequence (P42681 whole entry): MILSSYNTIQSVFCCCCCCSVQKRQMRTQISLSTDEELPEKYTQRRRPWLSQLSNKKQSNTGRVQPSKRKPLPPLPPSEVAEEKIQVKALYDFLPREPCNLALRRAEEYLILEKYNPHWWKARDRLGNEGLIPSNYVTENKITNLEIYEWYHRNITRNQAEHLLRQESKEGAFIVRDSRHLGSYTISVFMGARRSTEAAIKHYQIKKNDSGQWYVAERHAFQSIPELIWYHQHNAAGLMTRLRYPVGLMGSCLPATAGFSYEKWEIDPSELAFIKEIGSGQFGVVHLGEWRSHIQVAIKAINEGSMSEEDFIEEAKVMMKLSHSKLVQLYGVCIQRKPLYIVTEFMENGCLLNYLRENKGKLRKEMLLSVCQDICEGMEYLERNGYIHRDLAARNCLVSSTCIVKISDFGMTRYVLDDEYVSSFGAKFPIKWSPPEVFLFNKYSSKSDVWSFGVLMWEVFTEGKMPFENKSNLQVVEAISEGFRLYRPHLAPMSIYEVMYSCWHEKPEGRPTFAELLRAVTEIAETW
Method: as §1

Chain of Tyrosine-protein kinase Blk (P51451 whole entry): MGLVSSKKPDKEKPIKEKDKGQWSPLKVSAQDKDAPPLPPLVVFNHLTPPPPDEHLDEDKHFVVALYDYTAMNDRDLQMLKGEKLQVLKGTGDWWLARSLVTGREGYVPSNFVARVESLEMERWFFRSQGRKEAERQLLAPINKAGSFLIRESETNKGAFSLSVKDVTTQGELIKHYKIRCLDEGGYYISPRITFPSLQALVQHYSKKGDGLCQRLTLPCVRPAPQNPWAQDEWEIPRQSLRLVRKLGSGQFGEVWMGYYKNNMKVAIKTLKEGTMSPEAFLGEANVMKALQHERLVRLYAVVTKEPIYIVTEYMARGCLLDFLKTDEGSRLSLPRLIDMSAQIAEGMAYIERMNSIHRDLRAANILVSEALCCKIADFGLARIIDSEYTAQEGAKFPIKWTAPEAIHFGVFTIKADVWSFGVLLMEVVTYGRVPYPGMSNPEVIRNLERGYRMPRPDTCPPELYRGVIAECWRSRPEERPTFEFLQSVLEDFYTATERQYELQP

C=CC(=O)N1C[C@H](Nc2ncnc3[nH]ccc23)CC[C@@H]1C [PF-06651600]
Ki [1]: 32.4 nM
Ki [2]: 0.679 nM
Ki [3]: 0.131 nM
